The text below walks through data of patent US20230391808A1, “PHOSPHAPHENALENE-GOLD(I) COMPLEXES AS CHEMOTHERAPEUTIC AGENTS AGAINST GLIOBLASTOMA” (priority 2020, published 2023).

Where two headings read alike, the source gives them in different places.

The test system of data set [1] is NCH82. Description: Crystal violet proliferation assay, NCH82. Type of data set: cell-based, human. The settings on record: glioblastoma cell line, 48 h exposure, mean of three biological replicates ± standard deviation.
Data set [2] deals with NCH89. Description: Crystal violet proliferation assay, NCH89. Type of data set: cell-based, human. The settings on record: glioblastoma cell line, 48 h exposure, mean of three biological replicates ± standard deviation.
Data set [3] concerns NCH149. Description: Crystal violet proliferation assay, NCH149. It is filed as cell-based, human. Particulars: glioblastoma cell line, 48 h exposure, mean of three biological replicates ± standard deviation. On the procedure: In order to investigate the role of the fused phosphaphenalene ring in the bio-activity of the drug, the ability of Compound 5 to inhibit cell proliferation in the glioblastoma cell lines NCH82, NCH89 and NCH149 was examined. For this purpose, cells were incubated with increasing concentrations of Compound 5 and cell proliferation was evaluated by crystal violet assay.
The effect of different compounds on cell growth was evaluated by the crystal violet method as described earlier (J. P. Rigalli et al., Cancer Lett. 2016, 376, 165-172). Briefly, cells were seeded in 96-well plates (10,000 cells/well). After 24 h cell culture medium was replaced by fresh compound-containing medium (ten different concentrations (0.01 to 200 μM μM)). After 48 h of exposure extent of cell proliferation inhibition was determined by crystal violet staining of surviving cells. Therefore, cells were washed and stained with 0.5% crystal violet solution (2.5 g in 100 ml methanol, diluted with 400 ml aqua bidest) for 15 min, rinsed and dried overnight.
Next, crystal violet was solubilized in methanol and absorbance was measured at 555 nm. The proliferative index was calculated as crystal violet absorption intensity as percentage relative to baseline (no cells) as described before (T. Peters et al., Naunyn Schmiedebergs Arch Pharmacol. 2006, 372, 291-299.) Cell survival plotted against the decimal logarithm of drug concentration in μM (c (of compound x) in μM) and fitted to a sigmoidal dose-response curve using Graph Pad Prism 7.02 (GraphPad Software, San Diego, USA).

Data set [4] in a line: Stability under controlled thermodynamic conditions upon repetitive cycles of illumination. Type of data set: physicochemical. The settings on record: data not shown.
Data set [5] concerns the target thioredoxin reductase (Homo sapiens, UniProt Q16881). Particulars: Jortzik E. et al. 2014; cited from earlier work.
Data set [6] has as its target human glutathione reductase (Homo sapiens, UniProt P00390). The settings on record: Jortzik E. et al. 2014; cited from earlier work.
Data set [7] is described as follows: Solubility in solvents. It is filed as physicochemical. From the text: Importantly, all compounds 1-4 readily dissolved in DMSO/H2O mixtures 1:9. Compound 1 was the least soluble and started to precipitate at concentrations higher than 0.1 M.
Data set [8] in a line: Stability in dimethylsulfoxide/H2O solutions. Type of data set: physicochemical. The settings on record: over weeks.
Data set [9] deals with NCH82. Particulars: Deponte M. et al. 2005; read-out: IC50, proliferation of NCH82; cited from earlier work.
Data set [10] has as its system NCH89. The settings on record: Deponte M. et al. 2005; read-out: IC50, proliferation of NCH89; cited from earlier work.
Data set [11] relates to NCH82, NCH89, NCH125, and NCH210 cells. Description: Wound-healing (scratch) assay, tumor cell migration. Type of data set: cell-based, human. On the procedure:
Besides an increased tumor cell proliferation, a highly invasive cell growth drives malignancy of GBM. To obtain a more complete picture of the anti-cancer action of the compounds according to the invention, the effects of compound 4 on GBM cell invasion were investigated using a conventional wound-healing assay with NCH82, NCH89, NCH125, and NCH210 cells.
The results of the wound-healing assay are depicted in FIG. 2. […] The cells were imaged at 0 hours (t0) and at 24 hours (t1) after introducing the scrape. Cell migration was assessed by measuring cell-free areas at t0 and their reduction at t1.
To assess the effect of the drugs on cell migration in vitro cells were seeded in 6-well plates (5×10^5/Well) and left to attach. On the next day the cell monolayer was scraped in a straight line to create a “scratch” with a p200 pipet tip. […] Phase contrast images were acquired at 0 h and after 12 h of exposure to the respective drug concentration using a BX50 microscope with a SC30 camera (both Olympus, Tokyo, Japan). The cell-free areas at both time points were quantified and compared using the imaging software cellSens (Olympus, Tokyo, Japan).

For data set [12], the system named is NCH82. The data set is described as follows: Annexin V apoptosis assay (flow cytometry), NCH82. The settings on record: drug concentration of 2 μM, 48 hour-incubation (FIG. 3B). It is filed as cell-based, human. On the procedure: (§1) Thus, after a 48 hour-incubation period with different concentrations of Compound 4, the conventional GBM cells and GSCs were analyzed by flow cytometry. Annexin V and propidium iodide (PI) were used as indicators for apoptosis/necrosis. In line with the obtained IC50 values listed in Table 2, NCH82 cells appeared to be the most sensitive GBM cell line.
To quantitate the extent of apoptosis and necrosis, either annexin V staining combined with DAPI or double labeling of cells with annexin V and propidium iodide (PI) was used. The double labeling allows the distinction between apoptotic (annexin V^pos/DAPI^neg or annexin V^pos/PI^neg) and necrotic (annexin V^pos/DAPI^pos or annexin V^pos/PI^pos) cells. […]
After treatment supernatant containing apoptotic and necrotic cells was collected, cells were harvested, washed, and up to 1×10^6 cells were incubated with FITC-conjugated annexin V antibody diluted in 1:1000 DAPI solution following manufactures instructions (#51-65874X, BD Bioscienes, Franklin Lakes, USA) or incubated with FITC-conjugated annexin V antibody and PI for 15 min following manufacturer instructions (#51-65974X, BD Biosciences, Franklin Lakes, USA). Cells were acquired by flow cytometry using a BD LSRII flow cytometer (BD Bioscienes, Franklin Lakes, USA) and analyzed by FlowJo Software v7.6.5 (TreeStar, Ahland, USA).
On the technique in general: Flow cytometry measures light scatter and fluorescence of single cells or particles in a stream.

Data set [13] deals with NCH89. Description: Annexin V apoptosis assay (flow cytometry), NCH89. It is filed as cell-based, human. On the procedure:
(§2) It was further analyzed whether Compound 4 could sensitize GBM cells (NCH82 and NCH89) and GSCs (NCH421k, NCH644, and NCH660h) to apoptosis. The increase of apoptotic/necrotic cells with increasing concentrations of Compound 4 is illustrated in FIG. 3.
as §1
(§3) To quantitate the extent of apoptosis and necrosis, either annexin V staining combined with DAPI or double labeling of cells with annexin V and propidium iodide (PI) was used. The double labeling allows the distinction between apoptotic (annexin V^pos/DAPI^neg or annexin V^pos/PI^neg) and necrotic (annexin V^pos/DAPI^pos or annexin V^pos/PI^pos) cells. Cells were seeded in a 6-well plate (2.5×10^5/well) and left to attach overnight. Medium was replaced by fresh medium containing defined drug concentrations or compound solvent DMSO (untreated control) and incubated for 24 h. As positive control cells were treated with 1 μM of the apoptosis-inducing reagent staurosporin (#9953, Cell Signaling Technology, Danvas, USA). […]

The test system of data set [14] is GSCs (NCH421k, NCH644, and NCH660h). The data set is described as follows: Annexin V apoptosis assay (flow cytometry), GSCs. The settings on record: 48 hour-incubation (FIG. 3C). Type of data set: cell-based, human. The method, then:
as §2, §1, §3

Chain of thioredoxin reductase (Q16881 151-649 limits assumed): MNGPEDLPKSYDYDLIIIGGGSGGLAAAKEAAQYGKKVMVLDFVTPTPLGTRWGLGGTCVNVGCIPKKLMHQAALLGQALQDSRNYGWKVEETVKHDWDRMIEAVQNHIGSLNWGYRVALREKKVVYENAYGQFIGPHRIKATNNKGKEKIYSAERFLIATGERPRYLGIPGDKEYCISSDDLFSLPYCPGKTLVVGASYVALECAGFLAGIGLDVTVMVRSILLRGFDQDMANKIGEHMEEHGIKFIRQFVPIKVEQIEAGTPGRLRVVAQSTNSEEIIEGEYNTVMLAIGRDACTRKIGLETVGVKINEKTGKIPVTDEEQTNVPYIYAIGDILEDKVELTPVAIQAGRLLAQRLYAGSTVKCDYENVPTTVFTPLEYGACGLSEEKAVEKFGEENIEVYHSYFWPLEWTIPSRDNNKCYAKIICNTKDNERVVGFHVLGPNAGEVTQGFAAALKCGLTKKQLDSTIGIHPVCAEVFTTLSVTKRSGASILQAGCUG
Chain of human glutathione reductase (P00390 44-522): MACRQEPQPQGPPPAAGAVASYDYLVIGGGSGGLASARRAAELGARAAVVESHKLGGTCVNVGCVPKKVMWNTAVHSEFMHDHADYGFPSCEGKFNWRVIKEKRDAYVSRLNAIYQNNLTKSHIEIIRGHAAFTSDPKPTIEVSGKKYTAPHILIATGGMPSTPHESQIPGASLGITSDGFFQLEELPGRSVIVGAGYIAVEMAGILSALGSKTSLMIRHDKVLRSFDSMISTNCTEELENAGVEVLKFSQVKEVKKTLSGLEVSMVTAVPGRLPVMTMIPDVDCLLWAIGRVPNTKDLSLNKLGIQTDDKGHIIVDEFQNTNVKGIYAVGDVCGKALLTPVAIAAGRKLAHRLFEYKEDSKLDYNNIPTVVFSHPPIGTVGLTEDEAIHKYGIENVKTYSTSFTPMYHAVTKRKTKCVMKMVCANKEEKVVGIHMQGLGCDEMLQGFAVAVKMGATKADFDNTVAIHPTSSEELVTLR

With `CC(=O)OC[C@H]1O[C@@H]([S][Au-][P+]2(c3ccccc3)c3ccn(S(=O)(=O)c4ccccc4)c3-c3cccc4cccc2c34)[C@H](OC(C)=O)[C@@H](OC(C)=O)[C@@H]1OC(C)=O` (stereo partly drawn) [Compound 8], the IC50 in data set [1] is 1.37 µM; in data set [2] it was 4.49 µM; in data set [3], 2.85 µM. Further, the “stability upon repetitive cycles of illumination” value in data set [4] is on record as “very high stability”.
Regarding “1-phenyl-bis(2-pyridyl)phosphole gold chloride thio-β-d-glucose tetraacetate [GoPI-sugar]”, the results for the IC50 in data set [5] and in [6] were 0.0043 µM and 0.0885 µM, respectively.
For the compound `[Cl][Au][PH]1(c2ccccc2)c2cscc2-c2cccc3cccc1c23` [Compound 1], the “concentration above which precipitation starts” value in [7] (DMSO/H2O mixtures 1:9) was “higher than 0.1 M”. Also, the “stability in dimethylsulfoxide/H2O solutions” value in data set [8] is on record as “high stability”.
Regarding `[Cl][Au][PH]1(c2ccccc2)C(c2ccccn2)=CC=C1c1ccccn1` [GoPI, [1-phenyl-2,5-di(2-pyridyl)phosphole]AuCl], the IC50 is 12.5 ± 0.8 µM in [9] and 10.8 ± 0.8 µM in data set [10].
As for `CC(=O)OCC1OC([S][Au][PH]2(c3ccccc3)c3cscc3-c3cccc4cccc2c34)C(OC(C)=O)C(OC(C)=O)C1OC(C)=O` (stereo not drawn) [Compound 4], the “wound closure compared to untreated control cells” value in [11] (at least the corresponding IC50 concentrations, 24 hours) is listed as “significantly decreased wound closure”. Moreover, in [11] (concentrations c(IC50)/2 and c(IC50)/10, 24 hours), the wound closure entry is reported as “not significantly affected”. Further, the “induction of apoptosis, NCH82” value in data set [12] is “induced apoptosis in a high percentage of cells”. In addition, the “apoptotic/necrotic cells, NCH89” value in data set [13] (1 μM, 2 μM, and 10 μM for 24 hours (FIG. 3A)) is given as “dose-dependent increase of apoptotic/necrotic cells”. Besides, the “cell death, NCH89” value in data set [13] (concentration of 2 μM, 48 hour-incubation (FIG. 3B)) is on record as “no cell death”. Moreover, the “induction of apoptosis, GSCs” value in [14] is “induction of apoptosis could be demonstrated but to a lesser extent”. Moreover, in [7], the “solubility in methanol, ethanol, DCM, CHCl3, Et2O and acetone” value is listed as “soluble”; the “solubility in pentane and hexane” value is recorded as “insoluble”.
`Cn1ccc2c1-c1cccc3cccc(c13)[P+]2([Au-][Cl])c1ccccc1` (stereo not drawn) [Compound 5]: the IC50 is 8.1 µM in [1], 15.1 µM in [2] and 8.87 µM in data set [3].
